According to PMC9822352, “Design, Synthesis and Evaluation of New Multifunctional Benzothiazoles as Photoprotective, Antioxidant and Antiproliferative Agents” (Molecules, 2022):

Legend:
[1] = DPPH radical scavenging test; conditions: compound at 1 mg/mL, 30 min, 517 nm; mean ± SEM
Procedure: The DPPH assay is widely used, and the simplest and fastest in vitro method for evaluating the antioxidant power of extracts or isolated compounds; it is based on the depletion of the 2,2-diphenyl-1-picrylhydrazyl radical (DPPH˙) by an antioxidant molecule with scavenger activity. This is an extremely sensitive test that can detect the activity of active ingredients present in very low concentrations.
The procedure used was adapted from Wang et al.. Briefly, 0.750 mL of a methanolic solution of each tested compound was treated with 1.5 mL of DPPH solution (0.004%) in MeOH. Samples were stored in the dark at room temperature for 30 min, and the absorbance value was read with a spectrophotometer at 517 nm, which is the maximum peak of absorbance relative to the DPPH radical absorption spectra. The values obtained were fitted into Equation (1) and converted to inhibition percentage (%) of the radical:DPPH inhibition percentage (%) = 100 × [1 − A1/A0](1) where A1 and A0 were, respectively, the absorbance recorded with and without the sample, which are directly proportional to DPPH residual concentration in the sample and DPPH concentration in the control (0.750 of MeOH and 1.5 mL of DPPH solution). […] A linear regression was performed to calculate the sample concentration able to eliminate 50% of DPPH free radicals.

[2] = FRAP (Ferric Reducing Antioxidant Power) assay; conditions: Trolox standard, 37 °C 10 min, 593 nm; mean ± SEM
Description: The FRAP (Ferric Reducing Antioxidant Power) test allows the measurement of the ability of antioxidants to reduce ferric ion to ferrous. This method represents one of the simplest, quickest and least expensive methods for the determination of reducing properties on oxidized species in vitro.
The FRAP test (Ferric Reducing Antioxidant Power) is based on a colorimetric reaction and evaluates the ability of a sample of reducing ferric ions to ferrous ion while complexed with TPTZ (2,4,6-trispyridil-s-triazine). The FRAP solution was prepared from 0.1 M acetate buffer (pH 3.6), 10 mmol/L of TPTZ in 40 mM HCl, and 20 mM solution of FeCl3, with a 10:1:1 ratio, as described. Then, 1.9 mL of this solution was incubated with 0.1 mL of the sample solution at 37 °C for 10 min. The absorbance was read with a UV-Vis spectrophotometer at a 593 nm wavelength, relative to the maximum peak of absorbance of Fe^2+-TPTZ complex. Trolox® was used as a standard and the results are expressed as µmolTE/g.

[3] = UV spectra in solution (MeOH-DMSO): λmax and molar extinction coefficient; type: physicochemical; conditions: for ε (molar extinction coefficient): at λmax, Lambert-Beer equation, in M-1 cm-1 (unit assumed); for λmax: solution in MeOH-DMSO, 290–400 nm
Procedure: We next investigated the protective potential against UV radiation of each compound. Specifically, in vitro tests were conducted to determine the parameters related to absorption in the UV spectrum and those fundamental to the relative evaluation of the filtering potential and thus candidature as possible UV sunscreen ingredients of the candidates under examination, including λ critical and SPF (sun protection factor). Since the SPF is correlated to the UV quantitative absorption of the substances, the wavelength of maximum absorption (λmax) and the molar extinction coefficient (ε) of the derivatives in solution (MeOH-DMSO) were evaluated (Figures S1 and S2, Supplementary Materials). The UV spectra of the compounds BZTidr1–6 and BZTcin1–5 were recorded in the UVA-UVB range (290–400 nm) to evaluate their profile and compare it to that of the PBSA, a commercial UVB filter that has a λmax of 302 nm. After this peak, the absorbance of PBSA drops, reaching almost zero in the 325 nm range, and thus not providing absorption in the UVA region.
Once the λmax of each derivative was established, the molar extinction coefficient ε was calculated by applying the Lambert-Beer equation (Table S1, Supplementary Materials): the higher this value, the greater the ability of the compound under examination to absorb UV radiation. […] The excellent values of BZTidr1, BZTidr2 and BZTidr3 are ascribed to the aforementioned hyperchromic shift. In regard to the BZTcin1–5 series, the molar extinction coefficients calculated were very high, and the best values were those of BZTcin1, BZTcin2 and BZTcin3, also attributable to the hyperchromic shift of the absorption spectra. For both series, the excellent absorption capacity of ultraviolet radiation can be traced back to the high π-type conjugation that characterizes them.

[4] = In vitro filtering parameters of O/W sunscreen formulation containing 3% compound (modified Diffey-Robson, PMMA plates); conditions: 3% in formulation, before irradiation
Description: All synthesized compounds were formulated at 3% and their photoprotective efficacy, determined by spectrophotometric measurements using the modified Diffey-Robson method, was compared with that of the lead compound PBSA (used at 3% in the same formulation) and using the base without active as a control (Table 2).
The synthesized compounds were incorporated at a concentration of 3% in a typical oil-in-water sunscreen formulation, to evaluate the filtering parameters, and have the following ingredient composition:
INCI (International Nomenclature Cosmetic Ingredients): aqua, glycerin, Euxyl PE 9010, xanthan gum, Tribehenin PEG-20 Esters, cetearyl alcohol, dicaprylyl carbonate, PPG-26-Buteth-26 (and) PEG-40 Hydrogenated Castor Oil (and) water, C12-C15 Alkyl Benzoate, and Sodium hydroxide (sol. 10%).
As previously reported the protocol indicates to spread 32.5 mg of each formulation on 25 cm^2 PMMA plates with the fingers. Each formulation was tested in triplicate, and five measurements were recorded for each dish, following a 15–30 min incubation in the dark at room temperature. UV transmittance data was recorded using a UV-VIS spectrophotometer in the range 290–400 nm. The blank plate, SPF, UVA-PF and critical wavelength were obtained by SPF Calculator software (version 2.1), Shimadzu, Milan, Italy).

[5] = Photostability study of 3% formulation (post-irradiation filtering parameters); conditions: 3% in formulation, post irradiation
Description: To outline the efficacy and safety profile of a sunscreen formulation, it is essential to provide data relating to photostability. It is possible to provide photodegradation data by recording, pre- and post-irradiation, the transmittance of PMMA plates with finger-coat formulations subjected to a dose of UVA capable of causing erythema, according to the criteria of Garoli et al.. By means of Equations (2) and (3) it was possible to evaluate the residual percentage of SPF in vitro and of UVA-PF for all the prepared formulations. Of greatest interest are the values obtained for the derivatives BZTcin2 and BZTcin4.
To determine the photostability, the previously reported method was adopted, which consists in preparing each plate as mentioned above and subjecting it to solar irradiation quantified as the minimum dose of UVA equivalent to an effective radiant exposure of erythema. The protocol stipulates that, before and after exposure to sunlight, the transmission of the sun protection layer in the range of 290–400 nm is recorded.
Using Equations (2) and (3) below, the residual percentage of SPF in vitro (% SPFeff.) and UVA-PF (% UVA-PFeff.) have been obtained, which, if greater than or equal to 80, can classify a filter as photostable. %SPFeff. = in vitro SPFafter/in vitro SPFbefore × 100(2) %UVA − PFeff. = UVA − PFafter/UVA − PFbefore × 100(3)

HaCat keratinocytes = test: Cell growth inhibition assay, HaCat; type: cell-based, human; conditions: Homo sapiens, HaCaT; 24 h incubation, cell count
Procedure: (§1) All synthesized compounds were tested in order to evaluate their in vitro antiproliferative activity. The human melanoma Colo-38 cell line was selected as a tumor skin model, while the immortalized human HaCaT keratinocytes were chosen as a control for the evaluation of the cytotoxicity towards non-cancerous cells and of the selectivity towards tumor cell lines. […] The selectivity index (SI) was also calculated and is the ratio between the IC50 of a given compound towards the non-cancerous cell line and the IC50 of the same compound towards the tumor cell line.
(§2) Cell growth inhibition assays were carried out using human melanoma Colo-38 cells and skin HaCat keratinocytes cells. Human melanoma Colo-38 cells were kindly provided by Dr. Patrizio Giacomini (Laboratory of Immunology, Regina Elena Institute, Rome, Italy). HaCat cells were kindly provided by Istituto Zooprofilattico Sperimentale della Lombardia e dell’Emilia Romagna, Brescia, Italy. Cell lines were seeded using concentrations of 40,000 cells/mL and 25,000 cells/mL, respectively. Colo-38 cells were maintained in RPMI 1640, supplemented with 10% fetal bovine serum (FBS), penicillin (100 Units mL^−1), and streptomycin (100 µg mL^−1). HaCat cells were maintained in DMEM, supplemented with 10% fetal bovine serum (FBS), penicillin (100 Units mL^−1), streptomycin (100 µg mL^−1) and glutamine (2 mM); the incubation was performed at 37 °C in a 5% CO2 atmosphere. Tested compounds were dissolved in MeOH/DMSO (1:1) to obtain 50 mM stock solutions and diluted before cell treatment in MeOH 100%. The tested compounds were added at serial dilutions to the cell cultures (from 0.1 to 100 µM) and incubated for 24 h further. Cells were then harvested, suspended in physiological solution, and counted with a Z2 Coulter Counter (Coulter Electronics, Hialeah, FL, USA). The cell number/mL and the IC50 values were determined when untreated cells were in the log phase of cell growth. Cells treated with vehicles and untreated cells were placed in each plate.

melanoma Colo-38 cells = test: Cell growth inhibition assay, Colo-38; type: cell-based, human; conditions: Homo sapiens; 24 h incubation, cell count
Procedure: as §1, §2

SMILES | DPPH (% Inhibition) [1] [%] | FRAP [2] [µmolTE/g] | ε (molar extinction coefficient) [3] | λmax [3] [nm] | SPF [4] | UVA/UVB [4] | UVAPF0 [4] | λc [4] [nm] | SPF [5] | UVA/UVB [5] | UVAPF [5] | λc [5] [nm] | melting point [°C] | IC50 (HaCat keratinocytes) [µM] | IC50 (melanoma Colo-38 cells) [µM]
COc1ccc(/C=C/C(=O)Nc2nc3ccccc3s2)cc1 [BZTcin3, (E)-N-(benzo[d]thiazol-2-yl)-3-(4-methoxyphenyl)acrylamide] | 5.77 ± 0.00 | 42.12 ± 1.35 | 36271.07 | 334.5 | 1.32 | 1.07 | 1.38 | 384 | 1.32 | 1.07 | 1.36 | 384 | 260 to 262 |  | 
O=C(N/N=C/c1ccc(O)c(O)c1)c1nc2ccccc2s1 [BZTidr4, (E)-N′-(3,4-dihydroxybenzylidene)benzo[d]thiazole-2-carbohydrazide] | >90.00 |  | 22183.99 | 346.2 | 1.53 | 1.05 | 1.65 | 389 | 1.63 | 1.05 | 1.64 | 389 | > 280 | > 100 | 92.9 ± 1.62
